# Entries after “also recorded” stand apart in the source; their conditions may differ.
# What was measured:
# [1] = system: black carrot (Deep Purple F1) roots; experiment: Field trial, foliar spray on black carrot, small plots harvested 21 weeks after sowing; assay type: in vivo, Daucus carota ssp. sativus var. atrorubens Alef.; settings: for increase of mean anthocyanin concentration of treated plants compared with respective controls: 21 weeks after sowing, foliar spray, 6 applications; for accumulation of anthocyanin in roots: field-applied, measured twenty-one weeks after sowing (FIG. 1, FIG. 2)
# Description: (§1) The experiment consisted on a factorial combination of […] (Deep Purple F1) and three sowing dates: 19 May 2014, and 18 and 25 May 2015, in field trials in Taastrup, Denmark, at the experimental station in Højbakkegård (latitude 55, longitude […]). Seeds were provided by Chr. Hansen A/S. Plants were cultivated on loamy soil. Air temperatures during the growing period were slightly different in both years of cultivation (mean values of 2 years: 15.4 and 14.6° C., May-October). Rainfall was complemented by irrigation throughout carrot growth to avoid water stress. The routine techniques of cultivation and plant protection, recommended for carrot crop production were applied.
# (§2) Plots were arranged in a randomized block design with three replications. In the three sowing dates, each plot consisted of three 4.5 m-long rows. Additionally, plots of three 12 m-long rows were arranged in 18 May 2015. 2-Chloroethylphosphonic acid solution (CERONE® brand ETHEPHON, 39.9% Bayer CropScience, Leverkusen, Germany) was applied as a foliar spray avoiding the rainy days, at rates of 0, 120 and 360 g·ha^−1 a.i. in 2014; 0, 360, and 720 g·ha^−1 a.i. in 2015 for small plots; and 0 and 360 g·ha^−1 a.i. for large plots. Applications were made using a CO2 backpack spaced 50 cm apart, beginning 6 weeks after planting and continuing every 3 weeks, for a total of 6 applications.
# Small plots (4.5 m-long rows) were harvested 21 weeks after sowing. The roots were manually harvested from the middle part of each row.
# In all analyses, 20 whole carrot roots per plot were washed and split lengthwise: 20 halves were ground in liquid nitrogen, and the generated powder was stored at −80° C. for further gene expression analyses; the complementary 20 halves were coarsely ground in a commercial blender, and 50 g of the resulting purée were immediately homogenized in 50 g of a 3% sulfuric acid solution (v/v), by using a Waring two-speed commercial blender (VWR—Bie & Berntsen, Herlev, Denmark). The resulting fine purée (4 g) was subsequently mixed with demineralized water (8 g) and vortexed. After incubation for 1 h at room temperature, the sample was centrifuged 20 min at 4500 rpm, and the supernatant (extract) was utilized for further analyses.
# Soluble solids were calculated with a digital refractometer with automatic temperature compensation and operating range from 0 to 53° Brix. For its calculation, the carrot extract obtained was filtered through 0.45 μm membrane filters, and Brix measurements were performed using 1 mL of the filtrate. For each measurement, two technical replicates were made and their average was reported.
# Dry matter was determined by the mass difference between the fresh sample and the dry sample. The sample was dried 24 h until it reached a constant weight using an oven at 90° C. The results were expressed as percentage of dry matter. For each measurement, two technical replicates were made and their average was reported.
# (§3) TMC was measured spectrophotometrically based on the pH differential method, with slight modifications. The carrot extract was diluted by adding 20 volumes of 0.2 M KCl-HCl pH 1, and TMC was measured at […] and 700 nm (to correct for sediment) using a UV-Vis spectrophotometer (Evolution™ 220, Thermo Fischer Scientific, Waltham, MA, USA). The TMC was expressed as cyaniding-3-glucoside equivalents (ppm).
# All analyses were performed with three technical and three biological replicates. Data were subjected to statistical analysis using SPSS software (version 22, SPSS Inc., Chicago, IL, USA). Treatments were compared using one-way analysis of variance (ANOVA) followed by a Tukey post hoc test. p<0.05 was considered significant.
# [2] = system: black carrot (Deep Purple) roots; experiment: Field trial, foliar spray on black carrot, large plots with successive harvests 7 to 35 weeks after planting; assay type: in vivo, Daucus carota ssp. sativus var. atrorubens Alef.
# Description: as §1, §2
# Large plots (12 m-long rows) were harvested several times from separate row segments, during the growing period from 30 Jun. 2015 to 19 Jan. 2016 (7, 10, 13, 16, 19, 22, 25, 26, 29 and 35 weeks after planting). Carrot production was estimated in large plots 21 weeks after planting: two meters per row was dug from each plot, and the carrots were washed and weighed. Measured weights were extrapolated to tons per hectare. […]
# Soluble solids were calculated with a digital refractometer with automatic temperature compensation and operating range from 0 to 53° Brix. […]
# Dry matter was determined by the mass difference between the fresh sample and the dry sample. […] The results were expressed as percentage of dry matter. […]
# as §3, with “(ppm). […]” for “(ppm).”
# [3] = treated plants versus controls (FIG. 1)
smiles,measurement,setting,value
O=P(O)(O)CCCl [2-Chloroethylphosphonic acid],effect of total amount applied on the accumulation of anthocyanin,"[1]; 120, 360 and 720 g ha^-1 a.i. treatments compared, either growing season",no differences were found; also recorded: nonsignificant effect
same,increase of mean anthocyanin concentration of treated plants compared with respective controls,[1]; Harvest 1 (first of three repetitions of two growing seasons),49%
same,increase of mean anthocyanin concentration of treated plants compared with respective controls,[1]; Harvest 2 (second of three repetitions),38%
same,increase of mean anthocyanin concentration of treated plants compared with respective controls,[1]; Harvest 3 (third of three repetitions),65%
same,root weight,[1]; either growing season (FIG. 1),did not affect
same,accumulation of anthocyanin in roots,[1],induced the accumulation of anthocyanin
same,accumulation of anthocyanin in roots,[1]; listed as ethylene-releasing compound,increased amounts of anthocyanin; also recorded: induced the accumulation of anthocyanin
same,increase of mean anthocyanin concentration in the roots of treated plants compared with respective controls (summary),"[1]; pre-harvest foliar spraying on black carrot leaves, over all repetitions",more than 35%
same,dry weight (DW),[1]; [3],lowest values
same,soluble sugar content (SSC),[1]; [3],lowest values
same,root colour in cross and longitudinal sections,[1]; treated roots versus untreated roots with white core (FIG. 2),solid purple colour
same,TMC after the last application,[2]; 7 weeks after the application of the last treatment (22 to 27 weeks after planting) (FIG. 3A),continued to increase
same,"root length, treated versus untreated carrots",[2]; at each harvest time (FIG. 4),differed insignificantly
same,"root weight, treated versus untreated carrots",[2]; at each harvest time (FIG. 4),differed insignificantly
same,mean anthocyanin concentration (TMC) of treated roots versus untreated,"[2]; at every harvest point, 7 to 35 weeks after planting, 360 g ha^-1 a.i.",higher

# Source: patent US12501919B2, “Method for increasing anthocyanin content in carrots” (UNIVERSITY OF COPENHAGEN, priority 2016, dated 2025)
